Consider 2 compounds from patent US7880014B2, “Angiotensin II receptor antagonists” (Merck Sharp & Dohme Corp., priority 2006, dated 2011).

Molecules are shown by their SMILES.

One series concerns the target T1, CYP3A4 (Homo sapiens, UniProt P08684).
T1 construct: Pooled human liver microsomes (1 mg/mL) were preincubated at 37° C; from tissue; host or cells: pooled human liver microsomes
In words: CYP3A4 Time-Dependent Inhibition Assay (pooled human liver microsomes, testosterone 6β-hydroxylation). Type of series: in vitro ADME. The conditions noted are these: human liver microsomes 1 mg/mL, preincubation 5 to 30 min. The method, then:
The incubation mixtures were diluted 10-fold with the same buffer containing 250 μM testosterone and an NADPH-generating system. The incubation was continued for an additional 10 min to monitor the extent of testosterone 6β-hydroxylation. The first order rate constants (kobs) for inactivation at 10 and 50 μM were calculated from the negative slope of the lines by linear regression analysis of the natural logarithm of the remaining activity as a function of time using KaleidaGraph Synergy Software (Reading, Pa.).

The next series has as its system rabbit aortic slices. Briefly: vessel relaxation assay (in vitro, tissue-based, rabbit aortic slices). Type of series: cell-based.

T1 sequence (P08684 whole entry): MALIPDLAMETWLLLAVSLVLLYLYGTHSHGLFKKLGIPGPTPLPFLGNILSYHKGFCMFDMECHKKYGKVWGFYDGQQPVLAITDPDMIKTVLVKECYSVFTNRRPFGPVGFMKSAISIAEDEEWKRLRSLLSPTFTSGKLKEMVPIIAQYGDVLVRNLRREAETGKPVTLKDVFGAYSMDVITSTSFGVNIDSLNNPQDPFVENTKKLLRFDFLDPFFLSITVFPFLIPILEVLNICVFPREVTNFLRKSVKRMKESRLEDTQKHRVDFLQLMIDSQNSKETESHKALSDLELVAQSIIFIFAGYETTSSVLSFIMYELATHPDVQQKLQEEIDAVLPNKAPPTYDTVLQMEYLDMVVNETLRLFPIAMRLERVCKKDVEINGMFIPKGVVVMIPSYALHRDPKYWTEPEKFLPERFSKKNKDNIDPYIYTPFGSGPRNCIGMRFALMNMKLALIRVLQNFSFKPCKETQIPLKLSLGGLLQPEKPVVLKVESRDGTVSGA

Consider `CCCCc1nc(Cl)c(C(=O)OC(C)OC(=O)OCCCC[C@H](CO[N+](=O)[O-])O[N+](=O)[O-])n1Cc1ccc(-c2ccccc2-c2nnn[nH]2)cc1` (single isomer, unassigned) [Compound 2], for which, at CYP3A4, the “Rate Constant (kobs) at 10 μM” value was determined as 0.026 min⁻¹ and the “Rate Constant (kobs) at 50 μM” value was 0.037 min⁻¹.
For `CCCCc1nc(Cl)c(C(=O)OC(C)OC(=O)OCCCC[C@H](CO[N+](=O)[O-])O[N+](=O)[O-])n1Cc1ccc(-c2ccccc2-c2nnn[nH]2)cc1` (single isomer, unassigned) [Compound 3], on CYP3A4, the “Rate Constant (kobs) at 10 μM” value is around 0.077 min⁻¹ and the “Rate Constant (kobs) at 50 μM” value turned out to be 0.076 min⁻¹. In addition, the EC50 in the series on rabbit aortic slices was 1300 nM.
